In article PMC6332040, “Synthesis, Density Functional Theory (DFT), Urease Inhibition and Antimicrobial Activities of 5-Aryl Thiophenes Bearing Sulphonylacetamide Moieties” (Molecules, 2015):
Values joined by “and” are separate entries in the source; they are usually repeats but may differ in a detail not shown here. Equal entries are not always repeated.

What was measured:
[1] = biological target: Jack bean urease enzyme (Canavalia ensiformis, UniProt P07374); assay: biochemical; format: biochemical; details: pH 6.8
Sequence of Jack bean urease enzyme (P07374 whole entry, looked up): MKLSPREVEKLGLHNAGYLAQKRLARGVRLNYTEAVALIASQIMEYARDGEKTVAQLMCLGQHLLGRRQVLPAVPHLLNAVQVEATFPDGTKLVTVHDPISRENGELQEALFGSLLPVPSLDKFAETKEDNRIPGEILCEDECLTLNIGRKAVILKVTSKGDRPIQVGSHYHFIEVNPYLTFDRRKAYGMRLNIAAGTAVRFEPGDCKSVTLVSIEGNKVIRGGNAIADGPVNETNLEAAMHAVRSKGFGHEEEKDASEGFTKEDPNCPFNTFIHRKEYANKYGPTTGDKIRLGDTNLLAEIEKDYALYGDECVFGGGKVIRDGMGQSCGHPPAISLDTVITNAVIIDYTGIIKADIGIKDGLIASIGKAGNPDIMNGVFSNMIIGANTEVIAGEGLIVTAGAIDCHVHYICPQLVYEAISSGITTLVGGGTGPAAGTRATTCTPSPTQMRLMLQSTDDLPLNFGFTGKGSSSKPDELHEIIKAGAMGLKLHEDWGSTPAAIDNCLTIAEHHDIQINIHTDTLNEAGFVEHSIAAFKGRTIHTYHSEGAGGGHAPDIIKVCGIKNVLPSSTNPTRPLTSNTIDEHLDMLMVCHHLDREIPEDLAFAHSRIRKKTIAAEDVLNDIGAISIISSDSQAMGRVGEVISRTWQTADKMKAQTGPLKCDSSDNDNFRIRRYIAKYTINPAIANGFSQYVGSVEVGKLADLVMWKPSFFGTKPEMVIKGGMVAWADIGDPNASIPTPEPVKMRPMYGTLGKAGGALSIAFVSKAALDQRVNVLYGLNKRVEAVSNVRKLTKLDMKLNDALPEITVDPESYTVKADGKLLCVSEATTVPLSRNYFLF
Procedure: Urease is an enzyme which converts urea to ammonium carbonate and is used as a diagnostic tool to establish the presence of different pathogens in the urinary and gastrointestinal tract. The percentage activity values of urease enzyme of compounds 4a–d were measured at 50 µg/mL and 250 µg/mL (Table 5), whereas, for compounds 4e–g, the percentage activity values of urease enzyme were measured at 15, 40 and 80 µg/mL, respectively (Table 6).
Jack bean urease enzyme (25 µL) was added in buffer solution (55 µL) containing 100 mM urea to prepare the stock solution. This mixture was then incubated with 5 µL (0.5 mM concentration) of the newly synthesized compounds for 15 min at 30 °C in 96-well plates. Anti-urease activity was resolved by knowing the production of ammonia using the indophenol method. Concisely, in each well, phenol reagent (45 µL, 0.005% w/v sodium nitroprusside and 1% w/v phenol) was added in addition to the alkali reagent (70 µL, NaOH 0.5% w/v and 0.1% NaOCl). After 50 min, the increase in absorbance was measured at 630 nm using a micro plate reader. All reactions were carried out in triplicate to obtained 200 µL final volume. The Softmax pro software was used to obtain the results as change in absorbance per minute. All assays were carried out at a specific pH of 6.8. The following formula was used to calculate the % inhibition: 100 − (OD test well/OD control) × 100(3)
Thiourea was used as standard inhibitor of urease. The EZ-fit kinetic data base was used to determine IC50 values. In the case of colored compounds, sample blanks were also prepared. Absorbance of sample blanks was subtracted from the absorbance of samples to get the corrected absorbance of the samples. Corrected absorbance of sample was used to calculate % age inhibition.

[2] = IC50, urease, Table 5 series (4a–d)
[3] = IC50, urease, Table 6 series (4e–g)

Row | Compound | melting point [°C] | IC50 [1, 2] | Percent urease inhibition ([1]; urease inhibition at 50 µg/mL) [%] | Percent urease inhibition ([1]; urease inhibition at 250 µg/mL) [%] | IC50 [1, 3] | Percent urease inhibition ([1]; urease inhibition at 15 µg/mL) [%] | Percent urease inhibition ([1]; urease inhibition at 40 µg/mL) [%] | Percent urease inhibition ([1]; urease inhibition at 80 µg/mL) [%] | IC50 ([1]; urease, Table 5 series (4a–d)) [µg/mL] | IC50 ([1]; urease, Table 6 series (4e–g)) [µg/mL]
1 | CC(=O)NS(=O)(=O)c1ccc(-c2ccccc2)s1 [Compound 4a] | 158 to 160 | ~136 µM and 136 µM | 67.56 ± 0.007 | 89 ± 0.01 |  |  |  |  |  | 
2 | CC(=O)NS(=O)(=O)c1ccc(-c2cc(C(F)(F)F)cc(C(F)(F)F)c2)s1 [Compound 4b, N-((5-(3,5-Bis(trifluoromethyl)phenyl)thiophen-2-yl)sulfonyl)acetamide] | 168 | ~197 µM and 197 µM | 29.98 ± 0.034 | 56 ± 0.006 |  |  |  |  |  | 
3 | CC(=O)NS(=O)(=O)c1ccc(-c2ccc(Cl)c(Cl)c2)s1 [Compound 4c] | 148 to 150 | ~121 µM and 121 µM | 54.4 ± 0.002 | 78 ± 0.003 |  |  |  |  |  | 
4 | CC(=O)NS(=O)(=O)c1ccc(-c2ccc(C)cc2)s1 [Compound 4d] | 161 to 163 | 738 µM | 13.34 ± 0.007 | 54 ± 0.004 |  |  |  |  |  | 
5 | CC(=O)NS(=O)(=O)c1ccc(-c2cc(C)cc(C)c2)s1 [Compound 4e] | 148 to 149 |  |  |  | 57.9 µM | 44.59 ± 0.14 | 91.21 ± 0.81 | 92.88 ± 0.14 |  | 
6 | CC(=O)NS(=O)(=O)c1ccc(-c2ccc(C)s2)s1 [Compound 4f] | 167 to 168.4 |  |  |  | ~56.7 µM and 56.7 µM | 42.44 ± 0.11 | 92.12 ± 0.21 | 94.66 ± 0.11 |  | 
7 | CC(=O)NS(=O)(=O)c1ccc(-c2ccc(Cl)cc2)s1 [Compound 4g] | 167 to 170 |  |  |  | 73.8 µM | 46.23 ± 0.11 | 90.97 ± 0.18 | 68 ± 0.02 |  | 
8 | NC(N)=S [Standard, Thiourea, reference compound] |  |  | 60 ± 0.032 | 95 ± 0.09 |  | 47.1 ± 0.31 | 65 ± 0.01 |  | 43 ± 0.38 | 23.3
